According to ChEMBL document CHEMBL1127258, “Structurally simplified squalestatins: monocyclic 1,3-dioxane analogues” (Bioorg Med Chem Lett, 1994):

Target: T1, Squalene synthase (Rattus norvegicus, UniProt Q02769)
T1 sequence (Q02769 whole entry): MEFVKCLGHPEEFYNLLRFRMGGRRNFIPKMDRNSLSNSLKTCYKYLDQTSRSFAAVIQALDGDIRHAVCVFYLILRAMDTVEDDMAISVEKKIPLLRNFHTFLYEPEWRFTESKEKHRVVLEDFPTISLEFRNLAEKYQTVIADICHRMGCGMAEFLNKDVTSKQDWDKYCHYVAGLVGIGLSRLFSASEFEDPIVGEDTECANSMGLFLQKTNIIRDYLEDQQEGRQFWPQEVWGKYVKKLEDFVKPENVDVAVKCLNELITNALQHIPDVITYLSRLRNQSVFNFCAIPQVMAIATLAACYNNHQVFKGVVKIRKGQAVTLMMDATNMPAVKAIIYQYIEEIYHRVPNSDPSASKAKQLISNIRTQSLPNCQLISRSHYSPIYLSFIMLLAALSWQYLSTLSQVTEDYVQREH
Assay: In vitro inhibitory concentration against squalene synthase from male rat liver microsomes
Format: tissue-based

Structure (SMILES)	IC50 [µM]
C=C(CC[C@@]12O[C@H](C(=O)O)[C@@](O)(C(=O)O)[C@@](C(=O)O)(COC1=O)O2)[C@@H](OC(C)=O)[C@H](C)Cc1ccccc1	0.2
C=C(CC[C@]1(C(N)=O)O[C@H](C(=O)O)[C@@](O)(C(=O)O)[C@](COC(C)=O)(C(=O)O)O1)[C@@H](OC(C)=O)[C@H](C)Cc1ccccc1	0.27
C=C(CC[C@]12O[C@H](C(=O)O)[C@@](O)(C(=O)O)[C@](C(=O)O)(O1)C(O)OC2O)[C@@H](OC(C)=O)[C@H](C)Cc1ccccc1 (stereo not given in full)	0.039
C=C(CC[C@]1(C(N)=O)O[C@H](C(=O)O)[C@@](O)(C(=O)O)[C@](COC(=O)/C=C/[C@@H](C)C[C@@H](C)CC)(C(=O)O)O1)[C@@H](OC(C)=O)[C@H](C)Cc1ccccc1	0.011
C=C(CC[C@@]12CC[C@@](C(=O)O)(O1)[C@](O)(C(=O)O)[C@@H](C(=O)O)O2)[C@@H](OC(C)=O)[C@H](C)Cc1ccccc1	0.057
